Results: ChEMBL document CHEMBL4052669, “Synthesis, molecular modelling and CYP24A1 inhibitory activity of novel of (E)-N-(2-(1H-imidazol-1-yl)-2-(phenylethyl)-3/4-styrylbenzamides” (Bioorg Med Chem, 2017)

target: T1, 1,25-dihydroxyvitamin D(3) 24-hydroxylase, mitochondrial (Homo sapiens, UniProt Q07973); test: Inhibition of MBP-tagged human CYP24A1 expressed Escherichia coli BL21-Gold(DE3) incubated for 25 mins in presence of Adx, AdR 1,25(OH)2D3 and NADPH by HPLC method
T1 sequence (Q07973 whole entry): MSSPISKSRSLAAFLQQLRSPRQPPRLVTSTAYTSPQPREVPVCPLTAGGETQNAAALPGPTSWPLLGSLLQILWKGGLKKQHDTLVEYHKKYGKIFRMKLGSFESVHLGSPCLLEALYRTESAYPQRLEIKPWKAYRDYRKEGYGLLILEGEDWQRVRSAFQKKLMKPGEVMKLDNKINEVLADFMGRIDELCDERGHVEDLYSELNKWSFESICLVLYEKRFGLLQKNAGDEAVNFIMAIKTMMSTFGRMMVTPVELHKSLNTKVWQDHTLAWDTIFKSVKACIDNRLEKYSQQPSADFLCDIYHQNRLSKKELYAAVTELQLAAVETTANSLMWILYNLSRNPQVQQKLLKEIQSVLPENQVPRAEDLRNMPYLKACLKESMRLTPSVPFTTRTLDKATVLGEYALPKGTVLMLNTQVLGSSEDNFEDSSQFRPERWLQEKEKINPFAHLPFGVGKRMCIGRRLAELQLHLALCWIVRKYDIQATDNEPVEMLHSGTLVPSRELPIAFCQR

`O=C(NCC(c1ccccc1)n1ccnc1)c1cccc(/C=C/c2ccccc2)c1` (stereo not given) and `O=C(NCC(c1ccc(Cl)cc1)n1ccnc1)c1cccc(/C=C/c2ccccc2)c1` (stereo not given) are within 1.5-fold of each other in IC50: 190 nM for the first, 160 nM for the second.

Compared with `O=C(NCC(c1ccc(Cl)cc1)n1ccnc1)c1ccc(/C=C/c2ccccc2)cc1` (stereo not given), `COc1ccc(C(CNC(=O)c2ccc(/C=C/c3ccccc3)cc2)n2ccnc2)cc1` (stereo not given) is 1.9-fold lower in IC50: 210 nM for the first, 110 nM for the second. The second is the more potent here.

First: COc1ccc(/C=C/c2ccc(C(=O)NCC(c3ccc(Cl)cc3)n3ccnc3)cc2)cc1OC (stereo not given)
Second: Cc1ccc(C(CNC(=O)c2ccc(/C=C/c3ccccc3)cc2)n2ccnc2)cc1C (stereo not given)
The IC50 of the first is 2.6-fold lower: 120 nM for the first, 310 nM for the second.

`O=C(NCC(c1ccc(C(F)(F)F)cc1)n1ccnc1)c1cccc(/C=C/c2ccccc2)c1` (stereo not given) and `O=C(NCC(c1ccc(C(F)(F)F)cc1)n1ccnc1)c1ccc(/C=C/c2ccccc2)cc1` (stereo not given) are within 1.5-fold of each other in IC50: 150 nM for the first, 180 nM for the second.

`O=C(NCC(c1ccccc1C(F)(F)F)n1ccnc1)c1ccc(/C=C/c2ccccc2)cc1` (stereo not given) and `O=C(NCC(c1ccccc1)n1ccnc1)c1cccc(/C=C/c2ccccc2C(F)(F)F)c1` (stereo not given) are within 1.5-fold of each other in IC50: 350 nM for the first, 340 nM for the second.
